Assay results from ChEMBL document CHEMBL1134415, “Potent and selective ET-A antagonists. 2. Discovery and evaluation of potent and water soluble N-(6-(2-(aryloxy)ethoxy)-4-pyrimidinyl)sulfonamide derivatives” (J Med Chem, 2001).

Tests used:
Endothelin-1 receptor [1] = biological target: T1, Endothelin-1 receptor (Sus scrofa, UniProt Q29010); assay: Ability to inhibit [125I]ET1 binding to endothelin A receptor in porcine aortic membrane; assay type: cell membranes
T1 sequence (Q29010 whole entry): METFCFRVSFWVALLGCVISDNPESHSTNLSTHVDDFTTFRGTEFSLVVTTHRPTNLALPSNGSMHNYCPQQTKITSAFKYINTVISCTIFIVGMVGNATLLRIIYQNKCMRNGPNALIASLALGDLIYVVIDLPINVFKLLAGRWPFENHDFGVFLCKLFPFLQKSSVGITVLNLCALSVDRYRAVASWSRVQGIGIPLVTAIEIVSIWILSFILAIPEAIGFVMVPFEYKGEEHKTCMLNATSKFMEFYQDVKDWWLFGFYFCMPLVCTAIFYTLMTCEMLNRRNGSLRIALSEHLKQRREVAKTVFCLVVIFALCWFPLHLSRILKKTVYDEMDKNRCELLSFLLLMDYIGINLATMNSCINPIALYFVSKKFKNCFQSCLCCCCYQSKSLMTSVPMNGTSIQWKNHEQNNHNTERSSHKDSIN

[2] = biological target: T2, Endothelin receptor type B (Homo sapiens, UniProt P24530); assay: Ability to inhibit specific binding of [125I]- -ET-1 to human GH cells which express endothelin B receptor; assay type: cell-based
T2 sequence (P24530 whole entry): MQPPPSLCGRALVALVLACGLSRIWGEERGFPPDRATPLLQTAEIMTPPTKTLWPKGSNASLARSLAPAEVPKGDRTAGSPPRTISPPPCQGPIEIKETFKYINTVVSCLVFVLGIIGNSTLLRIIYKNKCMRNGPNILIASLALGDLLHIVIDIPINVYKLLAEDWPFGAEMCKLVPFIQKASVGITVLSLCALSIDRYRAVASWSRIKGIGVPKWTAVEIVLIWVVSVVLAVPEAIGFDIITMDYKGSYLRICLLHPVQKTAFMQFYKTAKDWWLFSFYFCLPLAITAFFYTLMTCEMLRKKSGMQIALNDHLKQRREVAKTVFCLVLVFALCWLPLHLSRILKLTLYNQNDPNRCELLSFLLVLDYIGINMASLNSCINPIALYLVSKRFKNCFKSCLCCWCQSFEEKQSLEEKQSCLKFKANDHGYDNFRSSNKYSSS

[3] = Ability to inhibit specific binding of [125I]- -ET-1 to rat A 10 cells which express endothelin A receptor
Endothelin-1 receptor [4] = biological target: T3, Endothelin-1 receptor (Homo sapiens, UniProt P25101); assay: Ability to inhibit [125I]ET1 binding to human cloned endothelin A receptor expressed on CHO cells; assay type: cell-based
T3 sequence (P25101 whole entry): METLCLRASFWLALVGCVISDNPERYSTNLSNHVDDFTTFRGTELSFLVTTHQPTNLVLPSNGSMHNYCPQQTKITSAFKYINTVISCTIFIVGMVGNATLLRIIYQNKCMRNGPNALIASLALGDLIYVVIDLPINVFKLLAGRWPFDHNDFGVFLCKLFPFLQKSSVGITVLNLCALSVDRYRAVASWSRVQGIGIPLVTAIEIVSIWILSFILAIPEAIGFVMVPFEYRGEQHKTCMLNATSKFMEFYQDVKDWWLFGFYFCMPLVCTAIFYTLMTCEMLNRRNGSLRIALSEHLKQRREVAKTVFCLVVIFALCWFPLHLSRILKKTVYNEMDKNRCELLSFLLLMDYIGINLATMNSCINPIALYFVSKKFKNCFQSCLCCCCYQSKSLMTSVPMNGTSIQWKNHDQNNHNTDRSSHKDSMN

[5] = biological target: T2, Endothelin receptor type B; assay: Ability to inhibit [125I]-ET-1 binding to human cloned ETB receptors expressed on CHO cells; assay type: cell-based

SMILES | IC50 (Endothelin-1 receptor [1]) [nM] | other results
CC(C)(C)c1ccc(S(=O)(=O)Nc2ncnc(OCCOc3ncc(Br)cn3)c2-c2ccc(CO)cc2)cc1 | 0.04 | –
Cc1ccc(-c2c(NS(=O)(=O)c3ccc(C(C)(C)C)cc3)ncnc2OCCOc2ncc(C(=O)O)cn2)cc1 | > 10 | –
CSc1cnc(OCCOc2ncnc(NS(=O)(=O)c3ccc(C(C)(C)C)cc3)c2-c2ccc(C(=O)O)cc2)nc1 | > 10 | –
Cc1ccc(-c2c(NS(=O)(=O)c3ccc(C(C)(C)C)cc3)ncnc2OCCOc2ncc(CO)cn2)cc1 | – | IC50 [2]: 31 nM
Cc1ccc(-c2c(NS(=O)(=O)c3ccc(C(C)(C)C(=O)O)cc3)ncnc2OCCOc2ncc(Br)cn2)cc1 | 1.4 | –

More lines, main results first:

IC50 (Endothelin-1 receptor [1]) [nM] | SMILES | other results
0.04 | CSc1cnc(OCCOc2ncnc(NS(=O)(=O)c3ccc(C(C)(C)C)cc3)c2-c2ccc(CO)cc2)nc1 | –
< 0.001 | CSc1cnc(OCCOc2ncnc(NS(=O)(=O)c3ccc(C(C)(C)C)cc3)c2-c2ccc(C)cc2)nc1 | –
< 0.001 | Cc1ccc(-c2c(NS(=O)(=O)c3ccc(C(C)(C)C)cc3)ncnc2OCCOc2ncc(Br)cn2)cc1 | IC50 [3]: 0.039 nM; Ki (Endothelin-1 receptor [4]): 0.0042 nM; Ki [5]: 130 nM
